According to ChEMBL document CHEMBL4507276 (2021):

Key:
[1] = system: Phosphatidylinositol 4,5-bisphosphate 3-kinase catalytic subunit alpha isoform (Homo sapiens), P42336 [C420R]; details: Compound concentration 1000.0 nM
[2] = biological target: D(1B) dopamine receptor (Homo sapiens) (UniProt P21918); details: Compound concentration 10.0 uM
[3] = system: Mast/stem cell growth factor receptor Kit (Homo sapiens), P10721 [V559D]; details: Compound concentration 1000.0 nM
[4] = biological target: Casein kinase I isoform epsilon (Homo sapiens) (UniProt P49674); details: Compound concentration 1000.0 nM
[5] = system: Leucine-rich repeat serine/threonine-protein kinase 2 (Homo sapiens), Q5S007 [G2019S]; details: Compound concentration 1000.0 nM
[6] = biological target: Myosin-IIIb (Homo sapiens) (UniProt Q8WXR4); details: Compound concentration 1000.0 nM
[7] = biological target: Dual specificity protein kinase CLK3 (Homo sapiens) (UniProt P49761); details: Compound concentration 1000.0 nM
[8] = system: Phosphatidylinositol 4,5-bisphosphate 3-kinase catalytic subunit alpha isoform (Homo sapiens), P42336 [I800L]; details: Compound concentration 1000.0 nM
[9] = system: T1, Receptor-type tyrosine-protein kinase FLT3 (Homo sapiens), P36888 [D835Y]; details: Compound concentration 1000.0 nM
T1 sequence (whole entry): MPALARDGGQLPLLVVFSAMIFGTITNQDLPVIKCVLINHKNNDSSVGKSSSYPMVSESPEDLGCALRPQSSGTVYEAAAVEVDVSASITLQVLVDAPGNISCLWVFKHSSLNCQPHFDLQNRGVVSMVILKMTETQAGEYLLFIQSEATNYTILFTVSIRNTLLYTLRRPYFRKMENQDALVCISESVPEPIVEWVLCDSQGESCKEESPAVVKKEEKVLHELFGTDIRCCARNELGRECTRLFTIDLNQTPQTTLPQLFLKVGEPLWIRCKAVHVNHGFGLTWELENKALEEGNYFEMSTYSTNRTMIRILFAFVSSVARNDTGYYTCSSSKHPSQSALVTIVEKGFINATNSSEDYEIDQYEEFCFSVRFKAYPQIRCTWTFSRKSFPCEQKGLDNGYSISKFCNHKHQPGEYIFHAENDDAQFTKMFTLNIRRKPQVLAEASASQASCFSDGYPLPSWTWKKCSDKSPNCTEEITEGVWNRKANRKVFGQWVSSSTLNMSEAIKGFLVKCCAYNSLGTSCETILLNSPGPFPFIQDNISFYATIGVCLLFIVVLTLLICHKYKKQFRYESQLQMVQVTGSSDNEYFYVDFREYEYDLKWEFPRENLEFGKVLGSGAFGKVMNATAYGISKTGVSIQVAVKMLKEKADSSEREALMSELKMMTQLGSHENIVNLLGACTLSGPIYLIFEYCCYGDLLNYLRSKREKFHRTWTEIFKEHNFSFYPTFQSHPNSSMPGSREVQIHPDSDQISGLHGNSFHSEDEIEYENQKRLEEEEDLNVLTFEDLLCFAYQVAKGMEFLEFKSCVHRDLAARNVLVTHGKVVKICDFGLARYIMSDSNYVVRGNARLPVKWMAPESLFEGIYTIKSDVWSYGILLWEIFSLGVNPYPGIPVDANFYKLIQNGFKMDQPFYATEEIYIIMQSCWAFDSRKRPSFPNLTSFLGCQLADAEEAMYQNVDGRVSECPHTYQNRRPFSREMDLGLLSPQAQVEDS

[10] = biological target: High affinity nerve growth factor receptor (Homo sapiens) (UniProt P04629); details: Compound concentration 1000.0 nM
[11] = biological target: Vascular endothelial growth factor receptor 2 (Homo sapiens) (UniProt P35968); details: Compound concentration 1000.0 nM
[12] = biological target: Calcium/calmodulin-dependent protein kinase type 1 (Homo sapiens) (UniProt Q14012); details: Compound concentration 1000.0 nM
[13] = biological target: Glycogen synthase kinase-3 beta (Homo sapiens) (UniProt P49841); details: Compound concentration 1000.0 nM
[14] = biological target: Serine/threonine-protein kinase TAO1 (Homo sapiens) (UniProt Q7L7X3); details: Compound concentration 1000.0 nM
[15] = system: Tyrosine-protein kinase ABL1 (Homo sapiens), P00519 [T315I]; details: Compound concentration 1000.0 nM
[16] = biological target: Homeodomain-interacting protein kinase 2 (Homo sapiens) (UniProt Q9H2X6); details: Compound concentration 1000.0 nM
[17] = biological target: T2, Homeodomain-interacting protein kinase 4 (Homo sapiens) (UniProt Q8NE63); details: Compound concentration 1000.0 nM
T2 sequence (whole entry): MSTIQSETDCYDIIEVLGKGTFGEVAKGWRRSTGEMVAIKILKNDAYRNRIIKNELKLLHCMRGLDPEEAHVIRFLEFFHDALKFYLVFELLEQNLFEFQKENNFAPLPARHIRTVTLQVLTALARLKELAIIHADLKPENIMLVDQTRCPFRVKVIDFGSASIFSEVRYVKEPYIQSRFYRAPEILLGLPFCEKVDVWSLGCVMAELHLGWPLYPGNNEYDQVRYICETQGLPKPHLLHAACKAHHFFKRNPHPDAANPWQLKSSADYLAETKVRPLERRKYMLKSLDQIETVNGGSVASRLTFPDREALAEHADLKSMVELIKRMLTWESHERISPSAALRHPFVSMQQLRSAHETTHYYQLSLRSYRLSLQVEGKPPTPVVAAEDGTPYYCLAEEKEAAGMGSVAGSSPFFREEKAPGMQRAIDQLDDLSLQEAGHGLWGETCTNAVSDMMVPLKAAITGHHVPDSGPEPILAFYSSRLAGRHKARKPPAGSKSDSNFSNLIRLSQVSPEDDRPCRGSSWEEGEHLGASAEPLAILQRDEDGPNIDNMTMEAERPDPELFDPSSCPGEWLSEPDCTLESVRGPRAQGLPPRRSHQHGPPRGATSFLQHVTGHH

[18] = biological target: Serine/threonine-protein kinase PAK 3 (Homo sapiens) (UniProt O75914); details: Compound concentration 1000.0 nM
[19] = system: Receptor-type tyrosine-protein kinase FLT3 (Homo sapiens), P36888 [R834Q]; details: Compound concentration 1000.0 nM
[20] = biological target: Ribosomal protein S6 kinase beta-1 (Homo sapiens) (UniProt P23443); details: Compound concentration 1000.0 nM
[21] = system: Epidermal growth factor receptor (Homo sapiens), P00533 [T790M]; details: Compound concentration 1000.0 nM

Calcium/calmodulin-dependent protein kinase type 1 (Homo sapiens), sequence (Q14012 whole entry, looked up): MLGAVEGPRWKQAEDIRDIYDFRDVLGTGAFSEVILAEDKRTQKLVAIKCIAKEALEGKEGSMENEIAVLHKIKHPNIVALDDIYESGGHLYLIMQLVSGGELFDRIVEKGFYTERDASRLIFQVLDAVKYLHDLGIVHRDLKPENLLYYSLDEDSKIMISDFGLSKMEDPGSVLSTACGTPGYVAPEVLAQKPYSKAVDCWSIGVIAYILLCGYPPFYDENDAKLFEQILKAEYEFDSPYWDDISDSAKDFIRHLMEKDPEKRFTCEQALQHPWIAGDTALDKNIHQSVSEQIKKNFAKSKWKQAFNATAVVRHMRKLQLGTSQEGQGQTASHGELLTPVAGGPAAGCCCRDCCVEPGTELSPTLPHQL
Casein kinase I isoform epsilon (Homo sapiens), sequence (P49674 whole entry, looked up, canonical isoform): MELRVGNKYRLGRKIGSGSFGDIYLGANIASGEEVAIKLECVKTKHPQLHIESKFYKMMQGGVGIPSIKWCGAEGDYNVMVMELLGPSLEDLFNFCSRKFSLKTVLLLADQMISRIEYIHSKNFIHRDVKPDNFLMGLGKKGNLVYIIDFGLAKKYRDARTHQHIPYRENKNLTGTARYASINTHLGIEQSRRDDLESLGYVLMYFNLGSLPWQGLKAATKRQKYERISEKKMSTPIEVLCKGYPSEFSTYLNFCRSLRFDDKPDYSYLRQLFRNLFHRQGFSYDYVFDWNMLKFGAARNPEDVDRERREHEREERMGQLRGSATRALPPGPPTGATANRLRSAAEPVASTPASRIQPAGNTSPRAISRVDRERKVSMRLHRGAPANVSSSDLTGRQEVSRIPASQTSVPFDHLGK
Phosphatidylinositol 4,5-bisphosphate 3-kinase catalytic subunit alpha isoform (Homo sapiens), P42336 [I800L], sequence (P42336 whole entry I800L, canonical isoform): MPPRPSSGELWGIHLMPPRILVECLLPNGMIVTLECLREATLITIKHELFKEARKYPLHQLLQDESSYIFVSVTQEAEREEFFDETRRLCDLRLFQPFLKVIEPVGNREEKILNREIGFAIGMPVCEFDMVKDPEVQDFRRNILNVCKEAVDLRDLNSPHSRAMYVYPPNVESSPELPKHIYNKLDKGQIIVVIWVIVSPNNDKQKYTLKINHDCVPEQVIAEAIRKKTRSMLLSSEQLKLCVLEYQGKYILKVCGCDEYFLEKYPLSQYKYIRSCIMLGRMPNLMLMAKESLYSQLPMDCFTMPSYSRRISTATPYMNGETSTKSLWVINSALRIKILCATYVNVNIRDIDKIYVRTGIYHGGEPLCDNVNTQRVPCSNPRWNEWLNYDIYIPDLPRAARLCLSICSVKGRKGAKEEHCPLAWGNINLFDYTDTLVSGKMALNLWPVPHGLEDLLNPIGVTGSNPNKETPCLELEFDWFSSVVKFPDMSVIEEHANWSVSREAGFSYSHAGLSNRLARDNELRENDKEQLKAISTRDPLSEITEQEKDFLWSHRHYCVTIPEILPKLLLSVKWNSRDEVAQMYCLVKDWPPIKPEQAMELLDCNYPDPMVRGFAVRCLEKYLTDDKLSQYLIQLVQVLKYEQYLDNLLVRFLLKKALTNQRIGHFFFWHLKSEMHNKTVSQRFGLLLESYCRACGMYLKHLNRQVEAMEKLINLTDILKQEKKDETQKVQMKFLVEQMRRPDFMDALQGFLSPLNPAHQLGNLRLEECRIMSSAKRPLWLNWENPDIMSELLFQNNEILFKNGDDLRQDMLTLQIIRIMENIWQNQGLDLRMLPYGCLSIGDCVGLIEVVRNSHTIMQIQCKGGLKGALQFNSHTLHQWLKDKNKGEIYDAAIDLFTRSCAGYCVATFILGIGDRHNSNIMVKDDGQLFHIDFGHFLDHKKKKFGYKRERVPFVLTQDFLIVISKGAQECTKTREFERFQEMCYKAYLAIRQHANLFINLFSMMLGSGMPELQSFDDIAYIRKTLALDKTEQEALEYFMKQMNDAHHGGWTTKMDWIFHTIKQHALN
Myosin-IIIb (Homo sapiens), sequence (Q8WXR4 whole entry): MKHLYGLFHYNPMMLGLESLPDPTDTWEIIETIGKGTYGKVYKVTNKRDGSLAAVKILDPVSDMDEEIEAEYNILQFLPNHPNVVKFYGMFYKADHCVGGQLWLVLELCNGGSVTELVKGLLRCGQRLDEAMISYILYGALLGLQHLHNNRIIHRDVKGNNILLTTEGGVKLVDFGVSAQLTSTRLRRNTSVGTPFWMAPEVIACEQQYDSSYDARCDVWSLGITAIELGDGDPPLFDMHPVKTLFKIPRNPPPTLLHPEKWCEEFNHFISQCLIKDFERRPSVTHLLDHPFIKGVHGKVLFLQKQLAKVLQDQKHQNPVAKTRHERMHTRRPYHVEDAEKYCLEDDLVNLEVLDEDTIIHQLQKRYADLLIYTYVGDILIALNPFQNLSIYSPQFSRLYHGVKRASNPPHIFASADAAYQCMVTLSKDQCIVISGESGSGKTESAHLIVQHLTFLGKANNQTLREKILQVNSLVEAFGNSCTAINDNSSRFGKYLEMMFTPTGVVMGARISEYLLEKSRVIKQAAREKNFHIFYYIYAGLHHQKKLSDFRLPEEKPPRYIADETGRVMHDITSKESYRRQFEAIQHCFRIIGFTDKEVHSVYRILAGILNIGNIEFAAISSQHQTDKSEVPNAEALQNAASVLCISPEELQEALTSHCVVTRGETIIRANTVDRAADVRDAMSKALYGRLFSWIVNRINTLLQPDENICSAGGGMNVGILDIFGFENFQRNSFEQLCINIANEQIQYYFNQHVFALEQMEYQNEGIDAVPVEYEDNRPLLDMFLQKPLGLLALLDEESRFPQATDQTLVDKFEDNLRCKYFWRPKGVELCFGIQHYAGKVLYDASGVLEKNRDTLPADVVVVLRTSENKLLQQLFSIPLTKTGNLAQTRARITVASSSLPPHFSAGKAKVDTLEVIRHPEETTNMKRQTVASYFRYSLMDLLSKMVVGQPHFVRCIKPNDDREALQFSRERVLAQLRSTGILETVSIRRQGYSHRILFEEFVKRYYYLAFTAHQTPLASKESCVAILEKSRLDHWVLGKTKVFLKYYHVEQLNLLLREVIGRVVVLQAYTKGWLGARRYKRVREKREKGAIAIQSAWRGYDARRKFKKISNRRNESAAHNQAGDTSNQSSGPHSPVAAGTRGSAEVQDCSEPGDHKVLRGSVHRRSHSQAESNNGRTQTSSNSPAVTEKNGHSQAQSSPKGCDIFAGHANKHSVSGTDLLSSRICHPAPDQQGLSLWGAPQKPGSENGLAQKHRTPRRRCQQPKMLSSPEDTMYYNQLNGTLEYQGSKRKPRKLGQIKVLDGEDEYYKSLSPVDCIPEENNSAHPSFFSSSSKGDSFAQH
Phosphatidylinositol 4,5-bisphosphate 3-kinase catalytic subunit alpha isoform (Homo sapiens), P42336 [C420R], sequence (P42336 whole entry C420R, canonical isoform): as the sequence (P42336 whole entry I800L, canonical isoform) above, with C420R, L800I counted along it
Serine/threonine-protein kinase TAO1 (Homo sapiens), sequence (Q7L7X3 whole entry): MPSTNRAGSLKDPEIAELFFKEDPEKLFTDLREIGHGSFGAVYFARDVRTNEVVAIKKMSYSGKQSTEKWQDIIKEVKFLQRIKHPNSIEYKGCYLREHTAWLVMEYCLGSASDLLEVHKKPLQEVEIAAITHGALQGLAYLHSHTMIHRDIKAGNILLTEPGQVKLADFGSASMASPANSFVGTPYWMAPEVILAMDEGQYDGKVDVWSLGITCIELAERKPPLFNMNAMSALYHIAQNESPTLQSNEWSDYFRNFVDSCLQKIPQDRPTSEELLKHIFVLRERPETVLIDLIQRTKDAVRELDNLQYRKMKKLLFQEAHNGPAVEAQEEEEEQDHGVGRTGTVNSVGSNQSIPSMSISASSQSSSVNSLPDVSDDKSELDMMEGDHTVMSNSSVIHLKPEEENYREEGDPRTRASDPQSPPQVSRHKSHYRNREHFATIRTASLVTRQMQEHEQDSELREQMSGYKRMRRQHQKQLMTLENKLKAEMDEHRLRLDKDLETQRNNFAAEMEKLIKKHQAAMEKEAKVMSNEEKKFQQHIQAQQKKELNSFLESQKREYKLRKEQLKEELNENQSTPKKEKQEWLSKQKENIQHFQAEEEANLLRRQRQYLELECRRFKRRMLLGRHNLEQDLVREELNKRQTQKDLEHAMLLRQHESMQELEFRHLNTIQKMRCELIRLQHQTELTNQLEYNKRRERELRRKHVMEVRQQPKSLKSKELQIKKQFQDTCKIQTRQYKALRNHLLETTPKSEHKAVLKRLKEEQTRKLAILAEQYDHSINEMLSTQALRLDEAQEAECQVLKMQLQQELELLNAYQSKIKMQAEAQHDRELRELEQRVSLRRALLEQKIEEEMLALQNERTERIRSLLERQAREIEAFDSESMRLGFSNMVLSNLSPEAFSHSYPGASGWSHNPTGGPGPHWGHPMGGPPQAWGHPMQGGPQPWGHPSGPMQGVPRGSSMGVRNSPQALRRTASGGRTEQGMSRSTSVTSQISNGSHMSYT
Dual specificity protein kinase CLK3 (Homo sapiens), sequence (P49761 whole entry, looked up, canonical isoform): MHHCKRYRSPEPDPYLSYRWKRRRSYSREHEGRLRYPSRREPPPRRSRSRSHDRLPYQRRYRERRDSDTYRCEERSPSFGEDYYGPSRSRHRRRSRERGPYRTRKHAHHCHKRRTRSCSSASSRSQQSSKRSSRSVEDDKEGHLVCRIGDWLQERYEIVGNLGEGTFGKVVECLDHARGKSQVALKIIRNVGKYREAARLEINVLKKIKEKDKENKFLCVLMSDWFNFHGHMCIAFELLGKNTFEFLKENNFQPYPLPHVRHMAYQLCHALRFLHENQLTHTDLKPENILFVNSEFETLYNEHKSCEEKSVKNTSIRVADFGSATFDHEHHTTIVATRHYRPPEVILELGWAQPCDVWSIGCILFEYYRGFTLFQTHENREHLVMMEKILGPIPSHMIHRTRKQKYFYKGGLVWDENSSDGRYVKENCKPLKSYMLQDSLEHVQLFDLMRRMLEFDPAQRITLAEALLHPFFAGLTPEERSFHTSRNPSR

CN(C)C(=O)Cn1cc(-c2nc(C3(c4ccc(-c5cnc(N)nc5)cc4)CC3)no2)cn1 [BI 0153]
inactive: residual activity [1] 95% | inhibition [2] 22.8% | residual activity [3] 100% | residual activity [4] 100% | residual activity [5] 100% | residual activity [6] 100% | residual activity [7] 100% | residual activity [8] 91% | residual activity [9] 100% | residual activity [10] 100% | residual activity [11] 70% | residual activity [12] 100% | residual activity [13] 81% | residual activity [14] 86% | residual activity [15] 82% | residual activity [16] 94% | residual activity [17] 100% | residual activity [18] 82% | residual activity [19] 90% | residual activity [20] 91% | residual activity [21] 80%

CN(C)C(=O)Cn1cc(-c2nc([C@@](C)(c3ccc(-c4cnc(N)nc4)cc3)C3CC3)no2)cn1 [BI 665915]
inactive: residual activity [1] 73% | inhibition [2] 9.24% | residual activity [3] 91% | residual activity [4] 97% | residual activity [5] 100% | residual activity [6] 70% | residual activity [7] 100% | residual activity [8] 54% | residual activity [9] 85% | residual activity [10] 70% | residual activity [11] 87% | residual activity [12] 100% | residual activity [13] 100% | residual activity [14] 75% | residual activity [15] 86% | residual activity [16] 87% | residual activity [17] 70% | residual activity [18] 87% | residual activity [19] 87% | residual activity [20] 83% | residual activity [21] 100%
